US20260224528A1, “PSILOCIN FORMULATIONS” (Eleusis Therapeutics US, Inc., priority 2023, published 2026)

Assay: Stability of DS in aqueous solution
Assay type: physicochemical
Conditions: pH range of 4 to 9; rapid degradation and discoloration
Procedure: The goal of this study was to develop an isotonic stable formulation with the psilocin benzoate Drug Substance (DS) concentration ranging from 0.5 to 3.0 mg/mL (mg free base psilocin) as a bulk sterile solution, having a pH in the range of 4 to 9 in a single use glass vial suitable for IV injection. […] This led to the development of a formulation of psilocin benzoate containing antioxidants, buffers, pH adjustment.

## CN(C)CCc1c[nH]c2cccc(O)c12.O=C(O)c1ccccc1 [DS, psilocin benzoate]
  Stability in aqueous solution: short stability in aqueous solution
